Experimental data: patent publication US5652249A, “Method of treating depression” (Nippon Shinyaku Co., Inc., priority 1993, dated 1997)

Legend:
[1] = Acute toxicity testing, oral, rats; design: species or system rat (male SD-strain); details: rat, in vivo, male SD rats, two-week observation, probit method
Protocol: (2) Groups of five male SD-strain rats weighing 280-360 g were used. The animals were fasted for 16-18 hours (from the previous day) and then orally given the test compound. The LD50 values were calculated by the probit method based on the mortality observed within the succeeding two-week period.

[2] = tested on: rats; assay: Rat forced swimming test (immobility time); format: in vivo, rat (male Wistar); details: for Immobility Time (mean ± S.E.): N=10; for Effect on the immobility time in the forced swimming test (in words): Dunnett's test vs control
Protocol: (§1) Particularly the forced swimming test has been used most widely in the evaluation of antidepressant drugs in animals. Reportedly the immobility time-shortening activity of an antidepressant drug as assayed by this test is highly correlated with the clinical efficacy of the drug in man (F. Borsini and A. Meli, 1988).
Five-week old male Wistar rats were used. A cylindrical vessel measuring 18 cm in diameter and 40 cm deep was filled with 25° C. of water to the level of 17 cm from the bottom, and the rat was forced to swim in the water for 15 minutes (Session I). After 24 hours, the rat was put again in the vessel for 5 minutes and the duration of time the rat remained motionless without swimming was determined (Session II). The drug was orally administered twice, viz. at completion of Session I and 1 hr before the start of Session II. The drug was suspended in 0.5% methylcellulose (MC) solution for the administration. The control group was orally given the same volume of 0.5% MC solution. Compound No. 2 was used as the test drug. As reference drugs, desipramine, which is a representative antidepressant, and aniracetam and idebenone, both of which are enhancers of cerebral circulation and metabolism, were used. The statistical significance of between groups differences was analyzed by Dunnett's test.

[3] = Acute toxicity testing, oral, mice; design: species or system mouse (male ddy-strain); details: mouse, in vivo, male ddy mice, 2 weeks observation, probit method
Protocol: (1) Groups of five male ddy-strain mice aged 6-7 weeks were used. The animals were fasted for 16-18 hours (from the previous day) and then orally given the test compound. The LD50 values were calculated by the probit method based on the mortality observed within the succeeding period of 2 weeks.

[4] = tested on: rats; assay: Rat learned helplessness test (escape failures); format: in vivo; details: for No. of escape failures (mean ± S.E.): oral once daily for 10 days, ECS group, 40 avoidance tasks, N=10
Description: as §1
The rat was orally administered with the drug once daily for 10 consecutive days. On days 8-10 of administration, the rat was placed in a shuttle box in which it received 100 unescapable electroconvulsive shocks (ECS) daily. The day after the last ECS session, the active avoidance task was given 40 times and the number of failures to escape was recorded. Compound No. 2 was used as the test drug. As a reference drug, desipramine was used.

[5] = 1 mg/kg, oral twice, *p < 0.01 vs control
[6] = 3 mg/kg, oral twice, *p < 0.01 vs control
[7] = 10 mg/kg, oral twice, *p < 0.01 vs control
[8] = 30 mg/kg, oral twice, *p < 0.01 vs control
[9] = 100 mg/kg, oral twice, *p < 0.01 vs control

Row | Compound | LD50 at 336 h [1] | Immobility Time (mean ± S.E.) ([2]; 0.3 mg/kg, oral twice (after Session I and 1 hr before Session II)) | Immobility Time (mean ± S.E.) [2, 5] | Immobility Time (mean ± S.E.) [2, 6] | Immobility Time (mean ± S.E.) [2, 7] | Immobility Time (mean ± S.E.) [2, 8] | Immobility Time (mean ± S.E.) [2, 9] | LD50 at 336 h [3] | No. of escape failures (mean ± S.E.) ([4]; 1 mg/kg) | No. of escape failures (mean ± S.E.) ([4]; 3 mg/kg) | No. of escape failures (mean ± S.E.) ([4]; 10 mg/kg, *p < 0.01) | Effect on the immobility time in the forced swimming test (in words) ([2]; oral twice) | Immobility Time (mean ± S.E.) ([2]; 50 mg/kg, oral twice, *p < 0.01 vs control) | Effect on failure to escape in the learned helplessness test (in words) ([4]; 10 mg/kg, oral) | Immobility Time (mean ± S.E.) ([2]; 300 mg/kg, oral twice)
1 | O=C1CC[C@H](C(=O)N2CCCCC2)N1 [Compound No. 2, D-(+)-1-(2-Pyrrolidone-5-carbonyl)piperidine] | ≥ 5000 mg/kg | 153.0 ± 17.2 s | 119.4 ± 11.0 s | 82.2 ± 18.1 s | 93.7 ± 13.4 s | 61.3 ± 8.5 s | 53.8 ± 12.6 s | 4160 mg/kg | 20.20 ± 4.89 | 13.60 ± 4.15 | 0.90 ± 0.69 | – | – | – | –
2 | COc1ccc(C(=O)N2CCCC2=O)cc1 [aniracetam] | – | – | – | – | 168.9 ± 18.0 s | 162.6 ± 14.5 s | 175.6 ± 13.8 s | – | – | – | – | did not influence the immobility time | – | – | –
3 | CNCCCN1c2ccccc2CCc2ccccc21 [desipramine] | – | – | 134.2 ± 20.8 s | 83.2 ± 16.1 s | 54.7 ± 15.8 s | 34.8 ± 12.2 s | – | – | 32.10 ± 2.66 | 19.00 ± 5.65 | 0.60 ± 0.27 | shortened the immobility time significantly and dose dependently at 3 mg/kg and higher doses | 41.8 ± 9.8 s | significant inhibitory effects on this failure to escape at 10 mg/kg | –
4 | COC1=C(OC)C(=O)C(CCCCCCCCCCO)=C(C)C1=O [idebenone] | – | – | – | – | – | 178.2 ± 17.6 s | 154.4 ± 17.4 s | – | – | – | – | did not influence the immobility time | – | – | 180.9 ± 13.9 s
